# Assay results from patent US20110262508A1, “ANTIMICROBIAL COMPOSITIONS, FORMULATIONS AND USES THEREOF” (priority 2007, published 2011).
# Where two headings read alike, the source gives them in different places. Peptide text beside a SMILES is read from it.
# Experiments:
# Format in all cases: cell-based
# [1] = tested on: A. baumannii ATCC 19606, Acinetobacter spp. ATCC 17903, Acinetobacter spp. ATCC 19004, E. coli BL21, S. aureus, S. typhimurium AroA, P. aeruginosa, P. …; assay: Antibacterial spectrum over the serial dilution panel (Table 6); conditions: summary of Table 6
# Description: (§1) Synthetic peptides were tested for their ability to inhibit bacterial growth in liquid culture. The peptides were added at a concentration of between about 5 μM and about 10 μM to individual wells of 96-deep-well dishes that contained liquid growth media freshly inoculated with one of the following bacteria: A. baumannii ATCC Accession No. 19606, Acinetobacter spp. ATCC 17903, Acinetobacter spp. ATCC 19004, Escherichia coli strain BL21, S. aureus, S. typhimurium strain AroA, P. aeruginosa or P. pneumotropica. After 5-6 hours of shaking at 37° C., growth was measured as absorbance at 595 nm. As a control, cultures were grown in the presence of 0.1% acetonitrile (i.e., the concentration present in 10 μM peptide).
# [2] = tested on: S. typhimurium strain AroA
# Description: as §1, with “The peptides were added at a concentration of between about 5 μM and about 10 μM to individual wells of 96-deep-well dishes that contained liquid growth media freshly inoculated with one of the following bacteria: A. baumannii ATCC Accession No.” left out
# A. baumannii = tested on: A. baumannii
# Excerpt: Broth dilution methods are e.g., described by Lorian (2007) In: Antibiotics in Laboratory Medicine, Fifth Edition; and In: Clinical and Laboratory Standards Institute, CLSI (formerly NCCLS), In: Methods for Dilution Antimicrobial Susceptibility Tests for Bacteria that Grow Aerobically—Approved Standard—Seventh Edition, CLSI document M7-A7, Villanova, Pa. (NCCLS; January 2006; Vol. 26 No. 2); and In: Clinical and Laboratory Standards Institute, CLSI (formerly NCCLS), Performance Standards for Antimicrobial Susceptibility Testing, Seventeenth Informational Supplement, M100-S17, Vol 27 No. 1 January 2007, all of which are incorporated herein by reference.
# The present inventors used such methods to quantitate activity in vitro of antimicrobial peptides of the invention against bacterial isolates, including laboratory strains and 50 clinical isolates of A. baumannii, and S. aureus ATCC Accession No. 2992. Briefly, small volumes of broth are dispensed in sterile, plastic microtiter trays, and 100 μl of serially-diluted antimicrobial peptide (0.1-64 μg) and 100 μl test organism (approximately 1×10^5 C.F.U.), are added. Following aerobic incubation overnight at 35±2° C. Control samples lacked peptide (Growth control), or lacked peptide and bacteria (Sterility control). The trays were examined visually and the minimal inhibitory concentration (MIC) of peptide required to inhibit bacterial growth were determined. The minimum bactericidal concentration (MBC) was estimated by sub-culturing the wells for which no bacterial growth was visible to the naked eye, to thereby determine a concentration of antimicrobial that reduces the original inoculum by at least about 99.9%.
SMILES,"selectively inhibited growth of Acinetobacter spp. ATCC 19004, and S. aureus [1]",% inhibition of bacterial growth by peptide ([2]; 12.5 μM peptide) [%],% inhibition of bacterial growth by peptide ([2]; 15 μM peptide) [%],% inhibition of bacterial growth by peptide ([2]; 17.5 μM peptide) [%],% inhibition of bacterial growth by peptide ([2]; 20 μM peptide) [%],selectively inhibited growth of S. aureus [1],% inhibition of bacterial growth by peptide ([2]; 5 μM peptide) [%],% inhibition of bacterial growth by peptide ([2]; 10 μM peptide) [%],other results
CC[C@H](C)[C@H](NC(=O)[C@H](CCCCN)NC(=O)[C@@H](NC(=O)[C@H](CCCNC(=N)N)NC(=O)[C@H](CO)NC(=O)[C@H](Cc1ccccc1)NC(=O)[C@H](CS)NC(=O)[C@H](CC(N)=O)NC(=O)[C@@H]1CCCN1C(=O)[C@H](CC(=O)O)NC(=O)CN)C(C)C)C(=O)N[C@@H](CC(C)C)C(=O)N[C@@H](C)C(=O)N[C@@H](CS)C(=O)O [Ac96] (H-GDPNCFSRVKILAC-OH),selectively inhibited growth,0,6,0,0,–,–,–,–
CC(C)C[C@H](NC(=O)[C@H](C)NC(=O)[C@H](CS)NC(=O)[C@H](CO)NC(=O)[C@H](C)NC(=O)[C@H](CO)NC(=O)[C@H](CCCNC(=N)N)NC(=O)CN)C(=O)N[C@@H](CCCNC(=N)N)C(=O)N[C@@H](Cc1c[nH]c2ccccc12)C(=O)N[C@@H](C)C(=O)NCC(=O)N1CCC[C@H]1C(=O)N[C@@H](CC(C)C)C(=O)N1CCC[C@H]1C(=O)N[C@@H](CCCCN)C(=O)NCC(=O)N[C@@H](CCCNC(=N)N)C(=O)NCC(=O)N[C@@H](CCCCN)C(=O)N[C@@H](Cc1c[nH]c2ccccc12)C(=O)N[C@@H](Cc1c[nH]c2ccccc12)C(=O)N[C@@H](CS)C(=O)O [Ac68] (H-GRSASCALRWAGPLPKGRGKWWC-OH; N-terminus and C-terminus assumed),–,0,0,0,0,–,–,–,selectively inhibited growth of Acinetobacter spp. ATCC 19004 [1]: selectively inhibited growth
CSCC[C@H](NC(=O)[C@H](CCCCN)NC(=O)[C@H](CC(C)C)NC(=O)[C@H](CC(C)C)NC(=O)[C@H](Cc1ccccc1)NC(=O)[C@H](Cc1ccccc1)NC(=O)[C@@H](N)Cc1ccccc1)C(=O)N[C@@H](CC(N)=O)C(=O)N[C@@H](Cc1ccc(O)cc1)C(=O)N[C@@H](CC(N)=O)C(=O)N[C@@H](C)C(=O)N[C@H](C(=O)N[C@@H](Cc1c[nH]cn1)C(=O)N[C@@H](CC(C)C)C(=O)N[C@@H](C)C(=O)NCC(=O)N[C@@H](CCCNC(=N)N)C(=O)N[C@@H](CCC(=O)O)C(=O)N[C@@H](Cc1ccccc1)C(=O)O)[C@@H](C)O [Ac88] (H-FFFLLKMNYNATHLAGREF-OH; N-terminus and C-terminus assumed),–,–,0,–,13,selectively inhibited growth,0,0,–
"CC(C)C[C@H](NC(=O)[C@@H](NC(=O)[C@H](CCC(=O)O)NC(=O)[C@@H](NC(=O)[C@H](CCCNC(=N)N)NC(=O)CNC(=O)[C@@H](N)CCC(N)=O)C(C)C)C(C)C)C(=O)N[C@@H](Cc1ccc(O)cc1)C(=O)N[C@@H](CCCNC(=N)N)C(=O)NCC(=O)N[C@@H](CO)C(=O)N[C@@H](Cc1c[nH]c2ccccc12)C(=O)NCC(=O)N[C@H](C(=O)N[C@H](C(=O)N[C@@H](CS)C(=O)O)C(C)C)[C@@H](C)O [Ac175, reference compound] (H-QGRVEVLYRGSWGTVC-OH; N-terminus and C-terminus assumed)",–,–,0,–,4,selectively inhibited growth,3,0,–
C[C@@H](O)[C@H](NC(=O)[C@H](CS)NC(=O)[C@H](CO)NC(=O)[C@@H](N)Cc1c[nH]cn1)C(=O)N[C@H](C(=O)N1CCC[C@H]1C(=O)N[C@@H](CC(N)=O)C(=O)N[C@H](C(=O)N1CCC[C@H]1C(=O)N[C@@H](CCC(N)=O)C(=O)N[C@@H](CCC(N)=O)C(=O)N1CCC[C@H]1C(=O)N[C@@H](Cc1c[nH]cn1)C(=O)N1CCC[C@H]1C(=O)N[C@@H](Cc1c[nH]cn1)C(=O)N[C@@H](Cc1c[nH]cn1)C(=O)N[C@@H](CCCNC(=N)N)C(=O)N[C@@H](Cc1c[nH]cn1)C(=O)N[C@@H](CCCNC(=N)N)C(=O)N[C@@H](CCCNC(=N)N)C(=O)N[C@@H](Cc1c[nH]cn1)C(=O)N[C@@H](CCCNC(=N)N)C(=O)N[C@@H](Cc1c[nH]cn1)C(=O)O)[C@@H](C)O)[C@@H](C)O [Ac46] (H-HSCTTPNTPQQPHPHHRHRRHRH-OH; N-terminus and C-terminus assumed),selectively inhibited growth,–,18,–,36,–,3,16,–
C[C@H](NC(=O)[C@H](CO)NC(=O)[C@H](CCCNC(=N)N)NC(=O)CNC(=O)[C@H](CCCNC(=N)N)NC(=O)CNC(=O)[C@H](CO)NC(=O)[C@H](CO)NC(=O)[C@H](CCCNC(=N)N)NC(=O)CNC(=O)[C@@H]1CCCN1C(=O)[C@@H]1CCCN1C(=O)[C@H](CO)NC(=O)[C@H](CCCNC(=N)N)NC(=O)[C@@H]1CCCN1C(=O)[C@H](CO)NC(=O)[C@@H]1CCCN1C(=O)[C@@H](NC(=O)[C@H](CCCNC(=N)N)NC(=O)CNC(=O)[C@@H](N)Cc1c[nH]c2ccccc12)[C@@H](C)O)C(=O)N[C@@H](CO)C(=O)N[C@@H](CS)C(=O)O [Ac66] (H-WGRTPSPRSPPGRSSGRGRSASC-OH; N-terminus and C-terminus assumed),selectively inhibited growth,0,0,0,0,–,–,–,–
CC[C@H](C)[C@H](NC(=O)[C@H](Cc1c[nH]c2ccccc12)NC(=O)[C@H](CC(=O)O)NC(=O)[C@H](CO)NC(=O)[C@H](CS)NC(=O)[C@H](CC(C)C)NC(=O)[C@H](CC(C)C)NC(=O)[C@H](C)NC(=O)[C@H](CS)NC(=O)[C@H](CCCNC(=N)N)NC(=O)[C@H](CC(C)C)NC(=O)[C@H](CCCNC(=N)N)NC(=O)[C@H](C)NC(=O)CN)C(=O)N[C@H](C(=O)N[C@@H](CO)C(=O)N[C@@H](CS)C(=O)N[C@@H](CCCNC(=N)N)C(=O)N[C@@H](CC(C)C)C(=O)N[C@@H](CC(C)C)C(=O)NCC(=O)N[C@H](C(=O)N[C@@H](CC(N)=O)C(=O)O)C(C)C)C(C)C [Ac40] (H-GARLRCALLCSDWIVSCRLLGVN-OH; N-terminus and C-terminus assumed),–,–,–,–,–,–,–,–,"selectively inhibited growth of A. baumannii ATCC Accession No. 19606, Acinetobacter spp. ATCC 17903, Acinetobacter spp. ATCC 19004, and S. aureus [1]: selectively inhibited growth; MIC (μM) for amidated peptide (A. baumannii): 10 to 15 µM; MIC (μM) for non-amidated Peptide (A. baumannii): 10 to 15 µM"
CC[C@H](C)[C@H](NC(=O)[C@H](CCCCN)NC(=O)[C@H](CO)NC(=O)[C@H](CC(C)C)NC(=O)[C@@H](N)CC(C)C)C(=O)N[C@@H](CCCNC(=N)N)C(=O)N[C@@H](C)C(=O)N[C@@H](CC(C)C)C(=O)N[C@@H](CCCNC(=N)N)C(=O)N[C@@H](CCCNC(=N)N)C(=O)N[C@@H](CCCNC(=N)N)C(=O)N[C@@H](CCCNC(=N)N)C(=O)N[C@@H](Cc1ccccc1)C(=O)NCC(=O)N[C@@H](CCC(N)=O)C(=O)N[C@@H](CO)C(=O)N[C@@H](CC(=O)O)C(=O)N[C@@H](CCCCN)C(=O)N[C@@H](CCCNC(=N)N)C(=O)N[C@H](C(=O)N[C@@H](CO)C(=O)N[C@@H](Cc1ccc(O)cc1)C(=O)N[C@@H](CCCCN)C(=O)O)[C@@H](C)CC [Ac16] (H-LLSKIRALRRRRFGQSDKRISYK-OH),–,–,–,–,–,–,–,–,"selectively inhibited growth of A. baumannii ATCC Accession No. 19606, Acinetobacter spp. ATCC 17903 and Acinetobacter spp. ATCC 19004 [1]: selectively inhibited growth; MIC (μM) for non-amidated Peptide (A. baumannii): 10 to 15 µM"
CC[C@H](C)[C@H](NC(=O)[C@H](CCCNC(=N)N)NC(=O)[C@H](CCCNC(=N)N)NC(=O)[C@H](CS)NC(=O)CN)C(=O)N[C@H](C(=O)NCC(=O)N[C@@H](Cc1ccccc1)C(=O)N[C@@H](CS)C(=O)N[C@H](C(=O)NCC(=O)N[C@@H](Cc1c[nH]c2ccccc12)C(=O)N[C@@H](CCCNC(=N)N)C(=O)N[C@@H](CC(C)C)C(=O)N[C@@H](CC(C)C)C(=O)N[C@@H](CC(C)C)C(=O)N[C@@H](CC(C)C)C(=O)N[C@@H](CC(C)C)C(=O)N[C@H](C(=O)NCC(=O)N[C@@H](CO)C(=O)NCC(=O)N[C@H](C(=O)O)C(C)C)[C@@H](C)O)C(C)C)[C@@H](C)O [Ac103] (H-GCRRITGFCVGWRLLLLLTGSGV-OH; N-terminus and C-terminus assumed),–,–,–,–,–,selectively inhibited growth,–,–,–
